# From publication PMC7577153, “Identification of Small-Molecule Inhibitors Targeting Porphyromonas gingivalis Interspecies Adherence and Determination of Their In Vitro and In Vivo Efficacies” (Antimicrobial Agents and Chemotherapy, 2020)
# Marks after values point to notes of the source that are not given here.
# Legend:
# TIGK cells = conditions: positive control, 2 mM hydrogen peroxide, 4 h;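 also: flow cytometry of cells stained with PE annexin V plus Sytox green, with untreated or 0.1% DMSO-exposed cells as negative controls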
# Method: (§1) The mouse macrophage cell line J774A.1 was grown in Dulbecco’s modified Eagle medium (DMEM) (Thermo Fisher Scientific, Waltham, MA) supplemented with 4.5 g/ml glucose, 10% fetal bovine serum (FBS), and 100 U/ml penicillin-streptomycin (Sigma-Aldrich, St. Louis, MO). HL60 (ATCC CCL240) cells were obtained from the American Type Culture Collection and cultured in Iscove’s modified Dulbecco’s medium (Sigma-Aldrich) supplemented with 20% fetal bovine serum (FBS) (Sigma-Aldrich).
# (§2) The apoptotic activity of the compounds was determined using the phycoerythrin (PE) annexin V/dead cell apoptosis kit with Sytox green for flow cytometry (Invitrogen, Carlsbad, CA). Cells were grown in 12-well flat-bottom microtiter plates at an initial density 2 × 10^5 cells in 1.5-ml medium per well for 24 h. Following the incubation period, spent medium was replaced with fresh medium containing the desired concentration of the test compound and incubated for another 18 h. After trypsinization, cells were harvested by centrifuging at 250 × g for 4 min, and the cell pellet was suspended in 100 μl of binding buffer supplemented with 1 μl Sytox and 5 μl annexin V, followed by incubation at 37°C for 15 min. Samples were then diluted by adding 400-μl binding buffer, and flow cytometry was performed using a FACScalibur flow cytometer (Becton, Dickinson, Franklin Lakes, NJ), measuring the fluorescence emissions at 530 nm and 575 nm.
# J774A.1 cells = conditions: positive control, 2 mM hydrogen peroxide, 4 h
# Method: as §1, §2
# HL60 cells = conditions: HL60, positive control, 2 mM hydrogen peroxide, 4 h
# Method: as §1, §2
smiles,measurement,setting,value
"OO [Medium/H2O2, hydrogen peroxide, reference compound]",Early apoptosis (%),TIGK cells,4.9%
same,Late apoptosis/necrosis (%),TIGK cells,21.9* %
same,Live cells (%),TIGK cells,56.6%
same,Early apoptosis (%),J774A.1 cells,1.3%
same,Late apoptosis/necrosis (%),J774A.1 cells,34.7%
same,Live cells (%),J774A.1 cells,41.9%
same,Early apoptosis (%),HL60 cells,12.3%
same,Late apoptosis/necrosis (%),HL60 cells,31.4%
same,Live cells (%),HL60 cells,52.7%
